Laboratory results: patent US20240115744A1, “FIBRIN-BINDING COMPOUNDS FOR IMAGING AND TREATMENT” (Collagen Medical, LLC, priority 2019, published 2024)
“Also recorded” adds a separate entry of the source. *1 amine or outer side, *2 acyl side, *3 side chain or, on linkers, in order; H or OH if unused. Where a SMILES comes first, the peptide text is derived from it. Bridges are numbered along the chain shown (N, C = ends). [ ]: non-standard residue; d: D form. The star is where a group is joined. NODAGA = O=C(O)CN1CCN(CC(=O)O)CCN(C(CCC(=O)*)C(=O)O)CC1; Tyr(3-Cl) = N[C@@H](Cc1ccc(O)c(Cl)c1)C(=O)O; X1 = O=C([C@@H]1CC(O)CN1[*:1])[*:2]

What was measured:
[1] = test system: fibrin in human carotid endarterectomy specimens; test: Ex vivo functional probe assay of human carotid endarterectomy specimens; conditions: compared to non-binding probe ^68Ga-22; 12 patients; P<0.05
Protocol: Twelve discarded surgical specimens from asymptomatic patients who underwent elective carotid endarterectomy at Massachusetts General Hospital were obtained and used in ex vivo studies described herein. Samples were processed for histology, autoradiography, and probe binding assay as described above (Examples 6 and 13).
Discarded surgical specimens were embedded in optimal cutting temperature compound, snap-frozen, and stored at −80° C. before further analysis. Alternating consecutive cryosections were processed for histology and autoradiography; triplicate tissue samples with 50 μm gap in between were used for these experiments. The remaining tissue samples were processed for functional probe assay.
For functional probe assay, samples were thawed at room temperature, weighed (8-15 mg per sample), cut into duplicates, and placed into tubes containing 111-148 kBq (3-4 μCi)^68Ga-20 or the non-fibrin binding control probe ^68Ga-22 in 1 mL PBS. The mixture was shaken for 45 minutes at room temperature. After centrifugation, supernatant (sup-1) was removed, kept for further analysis, and tissue samples were washed with PBS (1 mL); this procedure was repeated twice for each sample. Wash solutions (wash-1 and wash-2) were kept for further analysis. Activities in tissue samples and solutions sol-1, wash-1, and wash-2 were measured on a gamma counter. Percent uptake was calculated as follows: […]

[2] = Blood analysis in rat model of carotid artery crush injury (blood clearance); type: in vivo; conditions: relative to the other compounds compared
Protocol: (§1) Rat carotid endothelial injury model in vivo studies were conducted, wherein the common carotid artery is isolated and crushed briefly with a hemostat, resulting in mural thrombus formation at the site of the crush. The vessel wall fibrin is then imaged with our PET compounds. All six compounds were evaluated in this model.
(§2) Adult male Wistar rats were anesthetized by isoflurane (1-2% in medical air). Body temperature was maintained at 37° C. using a thermo-regulated heating pad. The right femoral vein and artery were cannulated for compound injection and blood sampling, respectively. Endothelial injury was induced by crush injury to the right common carotid artery (1-2 cm proximal to the carotid bifurcation) by clamping the vessel with a hemostat for 5 minutes. Immediately following the surgical procedures, rats were placed in a micro-PET/CT scanner. Compound (200-600 μL) was injected, PET-CT images were acquired, and blood samples were drawn from the femoral artery prior to compound injection and at 2, 5, 10, 15, 30, 60, 90, 120 min post injection. Tissues were harvested at the end for ex vivo analyses.
Blood samples were drawn from prior to probe injection and at 2, 5, 10, 15, 30, 60, 90, 120 min post injection. Each blood sample was weighed and counted using a gamma-counter. The activity in each sample was calculated as percent injected dose (% ID) per gram of tissue.

Fibrin clots = test: PET in rabbit model of high risk plaque (plaque-rupture model); type: in vivo
Excerpt: Mean SUV values, TBRvc and TBRm were compared across all rabbits after in vivo PET.

vessel wall fibrin = target: T1, vessel wall fibrin (Rattus norvegicus, UniProt P02680+P06399+P14480); test: Autoradiography / PET imaging of injured ipsi- and contra-lateral carotid arteries; type: in vivo; conditions: rat injured vs contra-lateral carotid; ^68Ga-19 vs ^68Ga-20
T1 construct: resulting in mural thrombus formation at the site of the crush; from tissue; host or cells: injured common carotid artery of Wistar rats (in vivo and ex vivo autoradiography)
T1 sequence (P06399 37-782 limits assumed): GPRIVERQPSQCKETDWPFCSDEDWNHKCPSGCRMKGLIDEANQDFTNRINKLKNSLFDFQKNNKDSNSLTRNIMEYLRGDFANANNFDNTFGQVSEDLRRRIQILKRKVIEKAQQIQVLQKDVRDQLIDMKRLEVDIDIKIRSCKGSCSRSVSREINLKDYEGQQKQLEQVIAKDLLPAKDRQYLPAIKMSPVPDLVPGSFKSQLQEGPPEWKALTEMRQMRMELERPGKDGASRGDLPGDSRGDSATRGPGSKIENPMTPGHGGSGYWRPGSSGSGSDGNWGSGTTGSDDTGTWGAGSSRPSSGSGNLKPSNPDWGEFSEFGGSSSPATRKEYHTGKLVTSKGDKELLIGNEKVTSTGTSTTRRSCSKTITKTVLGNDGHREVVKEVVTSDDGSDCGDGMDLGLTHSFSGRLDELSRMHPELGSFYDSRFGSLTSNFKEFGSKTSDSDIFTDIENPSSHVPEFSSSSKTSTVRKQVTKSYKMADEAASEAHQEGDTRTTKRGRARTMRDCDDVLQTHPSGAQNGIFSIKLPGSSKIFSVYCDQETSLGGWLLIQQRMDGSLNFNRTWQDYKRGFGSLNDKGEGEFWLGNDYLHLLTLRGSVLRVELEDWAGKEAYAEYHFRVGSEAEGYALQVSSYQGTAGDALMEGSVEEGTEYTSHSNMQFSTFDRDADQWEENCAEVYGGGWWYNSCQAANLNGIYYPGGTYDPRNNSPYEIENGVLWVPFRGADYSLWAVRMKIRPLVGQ
T1 sequence (P14480 33-479 limits assumed): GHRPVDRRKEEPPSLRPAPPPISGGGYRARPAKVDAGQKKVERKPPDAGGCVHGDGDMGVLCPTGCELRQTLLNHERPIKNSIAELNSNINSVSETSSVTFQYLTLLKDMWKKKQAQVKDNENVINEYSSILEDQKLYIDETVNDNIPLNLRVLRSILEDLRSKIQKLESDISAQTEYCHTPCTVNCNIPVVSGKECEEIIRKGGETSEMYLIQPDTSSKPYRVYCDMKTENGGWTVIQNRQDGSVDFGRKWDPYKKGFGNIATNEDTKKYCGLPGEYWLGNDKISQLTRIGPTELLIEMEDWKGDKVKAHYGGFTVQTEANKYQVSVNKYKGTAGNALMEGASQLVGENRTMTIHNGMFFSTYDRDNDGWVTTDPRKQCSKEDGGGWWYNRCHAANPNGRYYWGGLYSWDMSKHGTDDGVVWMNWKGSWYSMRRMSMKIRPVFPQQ
T1 sequence (P02680 27-445 limits assumed): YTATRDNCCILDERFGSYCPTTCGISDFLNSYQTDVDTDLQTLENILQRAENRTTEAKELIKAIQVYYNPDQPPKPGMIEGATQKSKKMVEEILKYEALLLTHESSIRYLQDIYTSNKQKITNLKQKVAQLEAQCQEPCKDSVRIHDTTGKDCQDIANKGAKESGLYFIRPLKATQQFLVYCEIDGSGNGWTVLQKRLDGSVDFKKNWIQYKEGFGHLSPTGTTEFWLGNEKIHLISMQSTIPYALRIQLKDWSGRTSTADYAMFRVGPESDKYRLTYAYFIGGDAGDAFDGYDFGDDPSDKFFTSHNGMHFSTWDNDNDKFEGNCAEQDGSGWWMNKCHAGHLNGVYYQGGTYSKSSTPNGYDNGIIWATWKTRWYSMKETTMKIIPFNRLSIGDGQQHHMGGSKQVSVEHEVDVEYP
Protocol: as §1, §2
The injured ipsi- and the contra-lateral carotid arteries were placed on a multipurpose film and imaged using a Perkin-Elmer Cyclone Plus Storage Phosphor system. […]

Compound: CC[C@H](C)[C@H](NC(=O)[C@H](Cc1cnc[nH]1)NC(=O)[C@@H]1CSSC[C@H](NC(=O)[C@@H](CCC(=O)O)NC(=O)[C@H](Cc2ccc(O)cc2)NC(=O)CCC(C(=O)O)N2CCN(CC(=O)O)CCN(CC(=O)O)CC2)C(=O)N2CC(O)C[C@H]2C(=O)N[C@@H](Cc2ccc(O)c(Cl)c2)C(=O)NCC(=O)N[C@@H](CC(C)C)C(=O)N1)C(=O)N[C@H](CCC(N)=O)C(N)=O (stereo partly shown) [Compound ^68Ga-20, metal not drawn] ({NODAGA}-Y[dE]C[X1][Tyr(3-Cl)]GLCHI[dQ]-NH2; disulfide 3-8)
- uptake, functional probe assay [1]: variable but significantly increased; also recorded: significantly higher uptake
- blood clearance ([2]; rat carotid artery crush injury, 2-120 min post injection): faster blood clearance
- metabolic stability ([2]; rat): better metabolic stability
- plaque rupture-to-control SUV ratios (Fibrin clots; across post injection imaging time points): higher plaque rupture-to-control SUV ratios were seen with longer post injection imaging time points
- PET-MR uptake along the aorta (Fibrin clots; plaque rupture group vs control): Fibrin clots were seen as uptake spots along the aorta on the plaque rupture group
- validation in rabbit model of high risk plaque (Fibrin clots; plaque-rupture model, in vivo PET): successfully validated
- ipsi: contra ratios (vessel wall fibrin): better ipsi: contra ratios
